Patent publication US20220339248A1, “METHODS FOR TREATING NEOINTIMAL HYPERLASIA USING F11R/JAM-A INHIBITORS” (THE RESEARCH FOUNDATION FOR THE STATE UNIVERSITY OF NEW YORK, priority 2019, published 2022)
“Also recorded” adds a separate entry of the source. Non-standard residues stand in square brackets, D forms with d.

Tests used:
[1] = tested on: uremic C57BL/6 mice; experiment: Carotid artery partial ligation (focal LCA stenosis) model of neointimal hyperplasia in 5/6 nephrectomized uremic mice; format: in vivo, mouse; conditions: for mean Intima Index (intima area/intima+media area) from 1 LCA location with biggest focal stenosis: FIG. 7, control 0.47±0.15, U-Mann Whitney p=0.039
Protocol: Carotid artery ligation was performed on 14 uremic C57BL/6 mice that underwent 5/6 nephrectomy. One week after nephrectomy, partial ligation of the left carotid artery (LCA) was performed on each mouse. Focal LCA stenosis was created by placing 9-0 nylon suture at 1 mm proximal to the carotid bifurcation (mid-focal stenosis) around the artery using a 35-gauge blunt needle (World precision Instruments, Inc., Sarasota, Fla.). Then the needle mandrel was gently removed to restore blood flow.
Mice were fed a regular mouse diet and divided into 2 groups of 7 mice each; the experimental group received Peptide 4D while the Control group received saline injections by intraperitoneal route for 21 days, as this was the time shown in earlier studies to correlate with development of neointimal hyperplasia following partial ligation of the carotid artery.
The mice were then euthanized on day 21 and both LCA and right carotid artery (RCA) were excised for analysis. Specimens were embedded in paraffin. Serial sections (6 μm thick) were collected at 200-μm intervals of the LCA from mid-focal stenosis as well as from the RCA serving as lesion control. Data were analyzed qualitatively and quantitatively using Image J software. The two groups were compared for differences in mean Intima Area and Intima Index, defined as the ratio of intima area divided by intima plus media area.

[2] = molecular target: T1, F11R (Homo sapiens, UniProt Q9Y624); conditions: statement in words; activity described in Babinska et al. and U.S. Pat. Nos. 9,556,235 and 8,557,957; cited from earlier work
T1 sequence (Q9Y624 28-299): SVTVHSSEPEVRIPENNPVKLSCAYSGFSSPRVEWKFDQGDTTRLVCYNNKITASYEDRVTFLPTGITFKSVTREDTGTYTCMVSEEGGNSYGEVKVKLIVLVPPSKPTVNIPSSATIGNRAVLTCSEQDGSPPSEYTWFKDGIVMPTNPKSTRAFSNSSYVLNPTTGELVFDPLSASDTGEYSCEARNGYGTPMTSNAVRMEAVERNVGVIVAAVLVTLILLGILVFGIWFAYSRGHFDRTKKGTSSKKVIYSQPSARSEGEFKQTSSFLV

NH2-(dK)-SVT-(dR)-EDTGTYTC-CONH2 (H-[dK]SVT[dR]EDTGTYTC-NH2; SMILES CC(C)[C@H](NC(=O)[C@H](CO)NC(=O)[C@H](N)CCCCN)C(=O)N[C@H](C(=O)N[C@H](CCCNC(=N)N)C(=O)N[C@@H](CCC(=O)O)C(=O)N[C@@H](CC(=O)O)C(=O)N[C@H](C(=O)NCC(=O)N[C@H](C(=O)N[C@@H](Cc1ccc(O)cc1)C(=O)N[C@H](C(=O)N[C@@H](CS)C(N)=O)[C@@H](C)O)[C@@H](C)O)[C@@H](C)O)[C@@H](C)O) [Peptide 4D]
mean Intima Index (intima area/intima+media area) from 10 LCA locations ([1]; FIG. 6, 21 days, n=7, control 0.27±0.13, U-Mann Whitney p=0.0079): significantly less | mean Intima Index (intima area/intima+media area) from 1 LCA location with biggest focal stenosis ([1]; 21 days, n=7): significantly less | mean Intima Index (intima area/intima+media area) from 1 LCA location with biggest focal stenosis ([1]; 21 days, n=7, listed as peptide 4D): 0.31±0.14 | intima area relative to distance from the ligation point (mid focal stenosis morphometry) ([1]; FIGS. 3A-3B, 4, LCA, 21 days, versus saline control, n=7): significantly smaller; also recorded: significantly decreased intima area | effect on neointimal hyperplasia ([1]; carotid ligation model, 21 days, versus saline control): significantly inhibits neointimal hyperplasia | number of mice whose LCA had severe neointimal hyperplasia ([1]; of 7 experimental mice, all control LCA severe, two with complete luminal occlusion): one

SVTVHSSEPEVRIPENNPVKLSC (SVTVHSSEPEVXIPENNPVKLSC; Laboratory synthesized sequence; (12)..(12) Xaa can be any naturally occurring amino acid) [SEQ ID NO: 11, 23-amino acid N-terminal peptide of F11R/JAM-A]
inhibition of the biological activities of F11R [2]: inhibitor of the biological activities of F11R

SSEPEVRIPENNPV (Laboratory synthesized sequence) [SEQ ID NO: 16]
inhibition of the biological activities of F11R [2]: inhibitor of the biological activities of F11R

KSVTREDTGTYTC (Laboratory synthesized sequence) [SEQ ID NO: 2]
inhibition of the biological activities of F11R [2]: inhibitor of the biological activities of F11R
